Reference: US20200123147A1, “THIAZOLE COMPOUNDS USEFUL AS PRMT5 INHIBITORS” (Bayer Aktiengesellschaft, priority 2017, published 2020)

What was measured:
[1] = tested on: PRMT5 (histone H4 Arg3 SDMA levels in MDA-MB-468 cells); experiment: In vitro assay 2: quantification of SDMA (symmetric dimethylarginine) expression levels (H4 Arg3) in cancer cells, High-Content Analysis; assay type: cell-based; details: Homo sapiens, 72 h, SDMA histone H4 (Arg3) average signal intensity per cell
From the text: In Vitro Assay 2: Quantification of SDMA (Symmetric Dimethylarginine) Expression Levels (H4 Arg3) After Small Molecule Treatment of Cancer Cells
The SDMA-assay based on High-Content Analysis (HCA) enables the biological characterization of compounds inhibiting PRMT5. By this assay, substances are benchmarked on their cellular activity to modulate histone H4 Arg3 levels over broad inhibitor concentration ranges.
Cultivated cells of the human mammary gland tumor cell line MDA-MB-468 (ATCC HTB-132) were plated at a density of 2500 cells per well in a 384-well microtiter plate in 20 μL of Roswell Park Memorial Institute (RPMI) 1640 medium supplemented with 1% (v/v) glutamine, 1% (v/v) penicillin, 1% (v/v) streptomycin and 10% (v/v) fetal calf serum. After pre-incubation at 37° C. overnight, test compo unds solubilized in DMSO were added at various concentrations (0 μM, as well as in the range of 0.005 μM-30 μM; the final concentration of the solvent DMSO was 0.5% (v/v)). Cells were incubated at 37° C. for 72 h in the presence of test compounds. Thereafter, cells were fixed with 4% (v/v) paraformaldehyde in phosphate buffered saline (PBS) at room temperature for 1 h, permeabilized using 0.5% (v/v) Triton X™ 100 in PBS for 15 min and blocked with 1% (v/v) bovine serum albumin (BSA) in PBS for 30 min. In the following, cells were incubated with anti-dimethyl-histone H4 (Arg3) symmetric antibody (Millipore #07-947) at RT for 2 h. After a single washing step with blocking solution, cells were incubated with species-specific fluorescent conjugated secondary antibody Alexa Fluor™ 488 (Jackson Immuno Research #111-546-003) at RT for 2 h.
Image acquisition for cells was carried out using the confocal imaging system OPERA® (PerkinElmer). Images were captured using two channels: Hoechst 33342 stain (DNA) and Alexa Fluor™ 488 (SDMA staining); and were analyzed using the MetaXpress® software (Molecular Devices). Exposure times were chosen for individual experiments to prevent saturation and allow for quantification in the linear range. A minimum of 500 cells in 5 field views were analyzed per well using 10× water immersion objective with a two-fold binning.
The image analysis routine was developed in MetaXpress®. The standardized image-analysis module “Count Nuclei” and the images of the DNA-channel were used for nuclei segmentation. The segmented nuclei were filtered for size, shape and signal intensity to exclude possible apoptotic and non-viable cells along with metaphase nuclei. These phenotypes result in overestimated antibody signals, due to their strong chromatin compaction. For further processing, binary object masks were calculated from the segmented and positively selected nuclei. The binary masks served as templates to be superimposed over the images of the SDMA channel. The SDMA average signal intensity per cell was quantified for every image set. The assay raw data were further analyzed by four parameter logistic regression analysis using Genedata's Assay Analyzer® and Condoseo® software to determine the IC50 value for each tested compound.

[2] = target: T1, PRMT5:MEP50 protein complex (Homo sapiens, UniProt O14744); experiment: In vitro assay 1: PRMT5 SPA assay ("EAA"); assay type: biochemical; details: scintillation proximity assay, methylation of biotinylated H4(1-24) peptide, 3H-SAM, 60 min at 22° C.
T1 construct: FLAG (N); made in house; host or cells: Hi5 insect cells
From the text: In Vitro Assay 1: PRMT5 SPA Assay (“EAA”)
PRMT5 inhibitory activities of the compounds described in the present invention were quantified using a scintillation proximity assay (SPA) which measures methylation by the enzyme of a synthetic, biotinylated peptide corresponding to the N-terminal sequence of Histone H4 (a.a. 1-24). The peptide of sequence […]-K(Btn)-amide is commercially available (e.g. from Biosyntan) and will be herein referred to as H4(1-24). The PRMT5:MEP50 protein complex used in the assay was produced in house following standard protocols. Briefly, full length PRMT5 and MEP50 constructs respectively tagged with N-terminal FLAG and 6× His sequences were co-expressed in Hi5 insect cells, and the recombinant protein complex was purified by FLAG affinity and size exclusion chromatography.
In a typical assay 11 different concentrations of each compound (0.1 nM, 0.33 nM, 1.1 nM, 3.8 nM, 13 nM, 44 nM, 0.15 μM, 0.51 μM, 1.7 μM, 5.9 μM and 20 μM) were tested in duplicate within the same microtiter plate. To this end, 100-fold concentrated compound solutions (in DMSO) were previously prepared by serial dilution (1:3.4) of 2 mM stocks in a clear low volume 384-well source microtiter plate (Greiner Bio-One), from which 50 nl of compounds were transferred into a white low volume test microtiter plate from the same supplier. Subsequently, 2.5 μL PRMT5 in aqueous assay buffer [20 mM Bicine pH 8.0 (Alfa Aesar), 7.5 mM Tris(2-carboxyethyl) phosphine hydrochloride (TCEP, Sigma), 0.1% (w/v) bovine gamma globuline (BGG, Sigma), 0.002% (v/v) Tween-20 (Sigma)] were added to the compounds in the test plate to a final enzyme concentration of—typically—7.5 nM (this parameter was adjusted depending on the activity of the enzyme lot in order to be within the linear dynamic range of the assay). The samples were then incubated for 15 min at 22° C. to allow pre-equilibration of the putative enzyme-inhibitor complexes before the start of the methylation reaction, which was initiated by the addition of 2.5 μL 2-fold concentrated solution (in assay buffer) of “cold” S-Adenosyl-L-Methionine (SAM, Sigma, final concentration: 0.5 μM), tritiated 3H-SAM (Perkin Elmer, final concentration: 0.5 μM) and H4(1-24) peptide substrate (final concentration: 0.06 μM). The resulting mixture (5 μL final volume) was shortly centrifuged (2 min., 1500 rpm) and incubated at 22° C. during 60 min. Thereupon the reaction was stopped by adding 3 μL of Streptavidin PS SPA imaging beads (Perkin Elmer, final concentration of 0.375 μg/μL) and “cold” SAM (AK Scientific, 250 μM final concentration) for non-specific binding reduction. Plates containing the stopped reaction were sealed with transparent adhesive foil (Perkin Elmer), centrifuged (2 min., 1500 rpm), and further incubated either 1 h at 22° C. or overnight at 4° C. in order to allow the SPA signals to develop. Subsequently, the amount of product was evaluated by measuring the energy transfer from the β-particles emitted by the 3H-labeled substrate to the Europium scintillator co-polymerized in the polystyrene matrix of the PS imaging beads, using the standard settings for this purpose of a Viewlux (Perkin-Elmer) CCD plate imaging device (emission filter 613/55 (IFP).
The resulting scintillation counts were taken as indicator for the amount of methylated peptide per well. The data were normalised using two sets of control wells (typically 16 each) for high—(=enzyme reaction with DMSO instead of test compound=0%=minimum inhibition) and low—(=all assay components without enzyme=100%=maximum inhibition) PRMT5 activity. IC50 values were calculated by fitting the normalized inhibition data to a 4-parameter logistic equation using the “Screener” analysis software from Genedata.

T1 sequence (O14744 whole entry, species assumed): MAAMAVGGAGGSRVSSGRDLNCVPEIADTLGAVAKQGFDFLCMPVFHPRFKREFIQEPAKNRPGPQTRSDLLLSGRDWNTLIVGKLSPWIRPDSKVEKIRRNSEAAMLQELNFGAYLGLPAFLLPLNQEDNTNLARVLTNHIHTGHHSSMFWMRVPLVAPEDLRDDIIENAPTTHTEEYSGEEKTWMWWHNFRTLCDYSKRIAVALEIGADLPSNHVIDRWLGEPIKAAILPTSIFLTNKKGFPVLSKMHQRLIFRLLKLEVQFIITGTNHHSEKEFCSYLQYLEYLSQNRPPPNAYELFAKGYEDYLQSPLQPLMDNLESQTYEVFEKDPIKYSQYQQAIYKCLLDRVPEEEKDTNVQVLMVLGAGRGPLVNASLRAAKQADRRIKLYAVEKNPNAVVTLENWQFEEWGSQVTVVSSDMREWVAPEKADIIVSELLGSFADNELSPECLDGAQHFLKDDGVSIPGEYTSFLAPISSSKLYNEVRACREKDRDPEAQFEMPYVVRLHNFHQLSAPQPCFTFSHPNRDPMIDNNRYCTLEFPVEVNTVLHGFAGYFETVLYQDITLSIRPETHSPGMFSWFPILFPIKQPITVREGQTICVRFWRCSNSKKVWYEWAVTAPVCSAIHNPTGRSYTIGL
T1 sequence (Q9BQA1 whole entry partner, species assumed): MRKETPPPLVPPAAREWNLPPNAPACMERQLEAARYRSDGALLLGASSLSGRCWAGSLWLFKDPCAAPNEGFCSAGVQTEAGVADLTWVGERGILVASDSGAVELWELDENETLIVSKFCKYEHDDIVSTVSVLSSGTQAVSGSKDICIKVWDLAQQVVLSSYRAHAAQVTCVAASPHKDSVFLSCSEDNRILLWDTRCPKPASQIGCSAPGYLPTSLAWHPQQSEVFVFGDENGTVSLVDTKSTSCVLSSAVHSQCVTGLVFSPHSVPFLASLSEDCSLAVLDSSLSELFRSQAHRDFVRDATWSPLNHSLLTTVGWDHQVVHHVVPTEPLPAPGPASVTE

SMILES	IC50 [1] [nM]	IC50 [2] [nM]
CC(C)(C)c1cc(NC(=O)c2csc(Nc3ccc(F)cc3)n2)no1 [Example 7, N-(5-tert-Butyl-1,2-oxazol-3-yl)-2-[(4-fluorophenyl)amino]-1,3-thiazole-4-carboxamide]	17600	149
Cn1nc(NC(=O)c2csc(Nc3ccccc3)n2)cc1C(F)(F)F [Example 10, N-[1-Methyl-5-(trifluoromethyl)-1H-pyrazol-3-yl]-2-(phenylamino)-1,3-thiazole-4-carboxamide]	27900	238
CCN(CC)CCOc1cc(NC(=O)c2csc(Nc3ccccc3)n2)ccc1-c1ccc(C)cc1 [Example 22, N-{2-[2-(Diethylamino)ethoxy]-4′-methylbiphenyl-4-yl}-2-(phenylamino)-1,3-thiazole-4-carboxamide]	23400	941
Cc1cc(NC(=O)c2csc(Nc3ccc(Cl)cc3)n2)no1 [Example 20, 2-[(4-Chlorophenyl)amino]-N-(5-methyl-1,2-oxazol-3-yl)-1,3-thiazole-4-carboxamide]	≥ 30000	971
O=C(Nc1cc(C2CC2)n[nH]1)c1csc(Nc2ccccc2)n1 [Example 14, N-(3-Cyclopropyl-1H-pyrazol-5-yl)-2-(phenylamino)-1,3-thiazole-4-carboxamide]	18600	303
O=C(Nc1ccon1)c1csc(Nc2ccc(Cl)cc2)n1 [Example 19, 2-[(4-Chlorophenyl)amino]-N-(1,2-oxazol-3-yl)-1,3-thiazole-4-carboxamide]	≥ 30000	775
CCn1ccc(NC(=O)c2csc(Nc3ccc(Cl)cc3)n2)n1 [Example 15, 2-[(4-Chlorophenyl)amino]-N-(1-ethyl-1H-pyrazol-3-yl)-1,3-thiazole-4-carboxamide]	≥ 30000	400
CC(C)(C)c1cc(NC(=O)c2csc(Nc3ccc(Cl)cc3)n2)n[nH]1 [Example 12, N-(5-tert-Butyl-1H-pyrazol-3-yl)-2-[(4-chlorophenyl)amino]-1,3-thiazole-4-carboxamide]	22100	295
O=C(NCCCCN1CCc2ccccc2C1)c1csc(Nc2ccc(Cl)cc2)n1 [Example 17, 2-[(4-Chlorophenyl)amino]-N-[4-(3,4-dihydroisoquinolin-2(1H)-yl)butyl]-1,3-thiazole-4-carboxamide]	10000	585
O=C(Nc1cc(C2CC2)n[nH]1)c1csc(Nc2ccc(Cl)cc2)n1 [Example 5, 2-[(4-Chlorophenyl)amino]-N-(3-cyclopropyl-1H-pyrazol-5-yl)-1,3-thiazole-4-carboxamide]	≥ 30000	113
O=C(Nc1nc2ccccc2s1)c1csc(Nc2ccc(Cl)cc2)n1 [Example 8, N-(1,3-Benzothiazol-2-yl)-2-[(4-chlorophenyl)amino]-1,3-thiazole-4-carboxamide]	≥ 30000	111
CC(C)(C)c1cc(NC(=O)c2csc(Nc3ccccn3)n2)no1 [Example 2, N-(5-tert-Butyl-1,2-oxazol-3-yl)-2-(pyridin-2-ylamino)-1,3-thiazole-4-carboxamide]	2450	78
CC(C)(C)c1cc(NC(=O)c2csc(Nc3ccc([N+](=O)[O-])cc3)n2)no1 [Example 13, N-(5-tert-Butyl-1,2-oxazol-3-yl)-2-[(4-nitrophenyl)amino]-1,3-thiazole-4-carboxamide]	26100	344
CC(C)(C)c1cc(NC(=O)c2csc(Nc3ccc(Cl)c(Cl)c3)n2)no1 [Example 21, N-(5-tert-Butyl-1,2-oxazol-3-yl)-2-[(3,4-dichlorophenyl)amino]-1,3-thiazole-4-carboxamide]	26700	1390
